In PubChem BioAssay (NCI) one finds TGI data, which are given here for nine molecules.

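Step 1: Grow cells in 96-well plates. Step 2: Expose to compound for 48 hours at 5 concentrations. Step 3: Interpolate endpoints linearly; if unreached, use highest concentration. The concentration for full growth arrest is given as TGI.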

Test systems include NCI-H522 lung; HOP-92 NSCLC; TK-10 renal; A549 NSCLC; SK-MEL-5 melanoma; OVCAR-4 ovarian; RPMI-8226 leukemia; ACHN renal; OVCAR-8 ovarian; SK-MEL-28 melanoma; T-47D breast; MDA-MB-231 breast; SN12C renal; UO-31 renal; MDA-MB-435; BT-549 breast; HL-60(TB) leukemia; SR leukemia.
Experiment in all cases: NCI anticancer screen, dose series, 48 h

`CSc1nc(Cl)c2c(n1)Sc1nc3ccccc3n1N=C2`: the TGI is 39.4 µM with NCI-H522 lung; 45.2 µM with HOP-92 NSCLC; > 100 µM in the assay on TK-10 renal; > 100 µM in the assay with A549 NSCLC; 72.6 µM in the assay on SK-MEL-5 melanoma; > 100 µM with OVCAR-4 ovarian. The TGI in the assay with RPMI-8226 leukemia was 60 µM; with ACHN renal, 58 µM; with OVCAR-8 ovarian, 36.4 µM; in the assay on SK-MEL-28 melanoma it was > 100 µM; in the assay with T-47D breast, 57.2 µM; in the assay on MDA-MB-231 breast, 50.9 µM. The TGI in the assay on SN12C renal was > 100 µM; with UO-31 renal it was 35.9 µM; with MDA-MB-435 it was > 100 µM; in the assay on BT-549 breast, 43.3 µM.
On to `CC(C)[C@H]1NC(=O)[C@H]2N=C(O[C@@H]2C)[C@@H]2CCCN2C(=O)[C@H](Cc2ccccc2)NC(=O)[C@@H]2COC(=N2)[C@@H](Cc2ccccc2)NC(=O)[C@@H]2COC1=N2`, for which the TGI in the assay with NCI-H522 lung, in the assay on TK-10 renal, with A549 NSCLC, in the assay with SK-MEL-5 melanoma, in the assay on OVCAR-4 ovarian and in the assay on RPMI-8226 leukemia was > 100 µM throughout. For the same molecule, the TGI with ACHN renal, in the assay with OVCAR-8 ovarian, in the assay with SK-MEL-28 melanoma, in the assay with T-47D breast, in the assay on MDA-MB-231 breast and in the assay on SN12C renal was > 100 µM in each case. In addition, the TGI with HL-60(TB) leukemia, in the assay with UO-31 renal, with MDA-MB-435 and with BT-549 breast was > 100 µM throughout.
Regarding `C[Si](C)(C)C#CCOC=C1CC1`, the TGI with NCI-H522 lung, in the assay with TK-10 renal, in the assay with A549 NSCLC, in the assay on SK-MEL-5 melanoma, in the assay with OVCAR-4 ovarian and in the assay on SR leukemia was > 100 µM each time. In addition, the TGI in the assay on ACHN renal, in the assay with OVCAR-8 ovarian, in the assay with SK-MEL-28 melanoma, in the assay on T-47D breast, with MDA-MB-231 breast and in the assay with SN12C renal was > 100 µM in each case. In addition, the TGI in the assay on HL-60(TB) leukemia, in the assay with UO-31 renal and in the assay with BT-549 breast was > 100 µM in each case.
As to `Cc1cc2nc3c(C#N)c4c(c(Nc5ccc(Cl)cc5)n3c2cc1C)CCC4`, the TGI is 26.5 µM in the assay on NCI-H522 lung; 47.8 µM in the assay on HOP-92 NSCLC; 40.9 µM in the assay with TK-10 renal; 32.9 µM in the assay with SK-MEL-5 melanoma; > 100 µM with OVCAR-4 ovarian; 32.7 µM in the assay with RPMI-8226 leukemia. For the same molecule, the TGI with ACHN renal turned out to be 43.3 µM; in the assay with OVCAR-8 ovarian, 35.5 µM; with SK-MEL-28 melanoma, 47.2 µM; in the assay with T-47D breast, 86.3 µM; in the assay on MDA-MB-231 breast it was 42.8 µM; with SN12C renal it was 34.4 µM. For the same molecule, the TGI in the assay with MDA-MB-435 is > 100 µM; in the assay on BT-549 breast, 44.8 µM.
As for `O=c1ccc2nc3ccc(O)cc3oc-2c1`, the TGI in the assay on NCI-H522 lung is > 73.5 µM; in the assay on HOP-92 NSCLC it was > 100 µM; with TK-10 renal, > 100 µM; in the assay with A549 NSCLC, > 100 µM; with SK-MEL-5 melanoma, 2.95 µM; with OVCAR-4 ovarian, > 100 µM. For the same molecule, the TGI was 30.8 µM with RPMI-8226 leukemia; > 100 µM in the assay on ACHN renal; > 100 µM in the assay with OVCAR-8 ovarian; > 100 µM in the assay on T-47D breast; > 100 µM in the assay with MDA-MB-231 breast; > 100 µM with SN12C renal. In addition, the TGI in the assay with HL-60(TB) leukemia is 25.4 µM; in the assay on UO-31 renal it was > 100 µM; in the assay with MDA-MB-435, 3.23 µM; in the assay on BT-549 breast, 44 µM.
Take `Cc1ccc2c(c1)C/C(=C\c1ccccc1C(=O)O)C2=O`: the TGI in the assay with NCI-H522 lung, in the assay on HOP-92 NSCLC, in the assay with TK-10 renal, in the assay with A549 NSCLC, in the assay on SK-MEL-5 melanoma and with OVCAR-4 ovarian was > 100 µM throughout. Further, the TGI in the assay on RPMI-8226 leukemia was > 100 µM; in the assay on SR leukemia it was 91.3 µM; in the assay with ACHN renal it was > 100 µM; in the assay on OVCAR-8 ovarian, > 100 µM; in the assay with SK-MEL-28 melanoma, > 100 µM; in the assay with T-47D breast it was > 100 µM. Also, the TGI in the assay on SN12C renal, in the assay with HL-60(TB) leukemia, in the assay with UO-31 renal, with MDA-MB-435 and in the assay with BT-549 breast was > 100 µM in each case.
Consider `NC1=CN(Cc2ccccc2)C2=N/C(=C\c3ccco3)C(=O)N12`, for which the TGI with NCI-H522 lung, with HOP-92 NSCLC, in the assay on TK-10 renal, with A549 NSCLC, with SK-MEL-5 melanoma and with OVCAR-4 ovarian was > 100 µM each time. Besides, the TGI in the assay on ACHN renal, in the assay with OVCAR-8 ovarian, with SK-MEL-28 melanoma, in the assay on T-47D breast, in the assay on MDA-MB-231 breast and in the assay on SN12C renal was > 100 µM in each case. Besides, the TGI in the assay on HL-60(TB) leukemia, in the assay on UO-31 renal, with MDA-MB-435 and in the assay on BT-549 breast was > 100 µM throughout.
As for `CC(C)[Si](OC1=CCC[C@H]2NC(=O)[C@@H](Cc3ccc([N+](=O)[O-])cc3)[C@@]12C)(C(C)C)C(C)C`, the TGI with NCI-H522 lung is 17.9 µM; with TK-10 renal, 23.9 µM; in the assay on A549 NSCLC, 5.17 µM; with SK-MEL-5 melanoma, 5.58 µM; with OVCAR-4 ovarian, 17.1 µM; in the assay with SR leukemia, 8.02 µM. For the same molecule, the TGI in the assay on ACHN renal came out at 4.28 µM; in the assay on OVCAR-8 ovarian, 24.4 µM; in the assay with T-47D breast it was 18.4 µM; with MDA-MB-231 breast, 28.1 µM; in the assay with SN12C renal it was 3.8 µM; in the assay with HL-60(TB) leukemia it was 24.4 µM. For the same molecule, the figures for the TGI with UO-31 renal and in the assay with BT-549 breast were 26.4 µM and 13.2 µM, respectively.
With `CC(C)(C)OC(=O)CC(NC(=O)OC(C)(C)C)C(=O)Oc1ccc([N+](=O)[O-])cc1` (stereo not given), the TGI in the assay with NCI-H522 lung, with HOP-92 NSCLC, in the assay on TK-10 renal, with A549 NSCLC, in the assay with SK-MEL-5 melanoma and with OVCAR-4 ovarian was > 100 µM each time. Besides, the TGI with RPMI-8226 leukemia, in the assay on ACHN renal, in the assay with OVCAR-8 ovarian, in the assay with SK-MEL-28 melanoma, with T-47D breast and in the assay on MDA-MB-231 breast was > 100 µM in each case. Further, the TGI with SN12C renal, in the assay with UO-31 renal, with MDA-MB-435 and in the assay with BT-549 breast was > 100 µM each time.
